The target of one assay is T1, Neurokinin NK2 (Homo sapiens, UniProt P21452).
T1 construct: host or cells: CHO cells
T1 sequence (P21452 1-398): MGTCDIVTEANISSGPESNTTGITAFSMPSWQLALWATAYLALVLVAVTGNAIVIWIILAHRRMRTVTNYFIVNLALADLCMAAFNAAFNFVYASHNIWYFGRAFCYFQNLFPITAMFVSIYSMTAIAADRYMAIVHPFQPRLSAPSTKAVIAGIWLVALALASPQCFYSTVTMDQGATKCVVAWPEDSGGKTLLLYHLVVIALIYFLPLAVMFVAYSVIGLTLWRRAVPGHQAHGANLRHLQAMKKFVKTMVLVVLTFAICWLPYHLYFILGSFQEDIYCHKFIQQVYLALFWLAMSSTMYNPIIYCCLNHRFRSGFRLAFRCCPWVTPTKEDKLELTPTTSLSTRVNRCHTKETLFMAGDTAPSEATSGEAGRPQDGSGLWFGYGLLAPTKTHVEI
Further details: method as in FDA Pharmacology Review Icatibant. Particulars: ref FDA Pharmacology Review Icatibant; read-out: IC50, binding to NK2 receptors; cited from earlier work.

Assay [1] concerns the target T2, endogenous human B2 receptor (Homo sapiens, UniProt P30411).
T2 construct: BK-induced contraction at endogenous human B2 receptor in the umbilical vein model; from tissue; host or cells: human umbilical vein rings (donor cords after elective caesarean section)
T2 sequence (P30411 1-391): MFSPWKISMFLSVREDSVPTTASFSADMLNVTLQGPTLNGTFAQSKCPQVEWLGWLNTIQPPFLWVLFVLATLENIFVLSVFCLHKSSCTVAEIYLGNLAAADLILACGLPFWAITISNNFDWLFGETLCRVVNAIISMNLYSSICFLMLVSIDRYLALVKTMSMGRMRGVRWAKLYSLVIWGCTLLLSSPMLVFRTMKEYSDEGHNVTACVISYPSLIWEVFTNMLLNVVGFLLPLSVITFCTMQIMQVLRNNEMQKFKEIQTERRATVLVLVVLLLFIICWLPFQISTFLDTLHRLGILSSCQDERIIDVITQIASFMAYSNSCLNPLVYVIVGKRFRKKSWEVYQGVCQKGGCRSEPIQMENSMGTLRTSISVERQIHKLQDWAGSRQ
Description: human isolated umbilical vein contractility assay, BK-induced contraction. To be noted: for Maximal BK-induced response in absolute force units ± S.E.M.: vehicle: Icatibant 1.90, Compound 1 […].

For a further assay, the target named is T3, rat B2 receptor (Rattus norvegicus, UniProt P25023).
T3 construct: host or cells: HEK293T cells
T3 sequence (P25023 1-396): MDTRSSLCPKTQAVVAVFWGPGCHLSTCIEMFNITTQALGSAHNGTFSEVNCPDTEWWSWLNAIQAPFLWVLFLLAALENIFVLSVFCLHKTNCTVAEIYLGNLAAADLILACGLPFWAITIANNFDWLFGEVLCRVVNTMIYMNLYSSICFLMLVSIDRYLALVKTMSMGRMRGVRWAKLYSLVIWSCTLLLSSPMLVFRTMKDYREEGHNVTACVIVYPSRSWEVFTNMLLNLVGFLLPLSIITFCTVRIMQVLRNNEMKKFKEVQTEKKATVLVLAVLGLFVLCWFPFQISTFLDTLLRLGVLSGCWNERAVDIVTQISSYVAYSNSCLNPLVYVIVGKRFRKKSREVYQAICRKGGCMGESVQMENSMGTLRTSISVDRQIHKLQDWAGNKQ
Kind of assay: Ca^2+ mobilization assay, HEK293T cells. It counts as cell-based. To be noted: BK at EC80 4.32 nM.

Assay [2] has as its target T2, endogenous human B2 receptor. Further details: method as in Marceau et al., 1994. To be noted: umbilical vein; ref Marceau et al., 1994; cited from earlier work.
The target of assay [3] is T4, cynomolgus monkey B2 receptor (Macaca fascicularis, UniProt A0A7N9CWN6).
T4 sequence (A0A7N9CWN6 1-391): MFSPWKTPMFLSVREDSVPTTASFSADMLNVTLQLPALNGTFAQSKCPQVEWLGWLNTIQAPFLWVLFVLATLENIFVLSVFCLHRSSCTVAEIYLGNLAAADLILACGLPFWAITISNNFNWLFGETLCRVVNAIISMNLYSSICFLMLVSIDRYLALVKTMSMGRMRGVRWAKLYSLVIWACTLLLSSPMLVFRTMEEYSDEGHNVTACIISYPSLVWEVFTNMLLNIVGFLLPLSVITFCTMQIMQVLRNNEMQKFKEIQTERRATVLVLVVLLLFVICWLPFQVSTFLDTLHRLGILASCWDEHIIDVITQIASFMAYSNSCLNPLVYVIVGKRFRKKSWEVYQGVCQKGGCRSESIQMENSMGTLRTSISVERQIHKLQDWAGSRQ
Description: cell-based.

The target in a further assay is T5, dog B2 receptor (Canis lupus familiaris, UniProt Q9BDQ4).
T5 sequence (Q9BDQ4 1-392): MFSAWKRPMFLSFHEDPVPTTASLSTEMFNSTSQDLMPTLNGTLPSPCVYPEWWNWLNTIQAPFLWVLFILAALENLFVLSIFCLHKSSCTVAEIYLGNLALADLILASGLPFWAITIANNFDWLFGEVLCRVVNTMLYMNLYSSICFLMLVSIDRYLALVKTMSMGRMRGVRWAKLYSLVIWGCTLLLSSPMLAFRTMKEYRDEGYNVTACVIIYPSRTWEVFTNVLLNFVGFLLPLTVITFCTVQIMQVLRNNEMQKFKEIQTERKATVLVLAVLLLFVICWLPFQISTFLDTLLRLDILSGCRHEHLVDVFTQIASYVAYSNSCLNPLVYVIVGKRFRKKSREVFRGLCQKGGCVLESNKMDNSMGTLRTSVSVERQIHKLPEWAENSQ
Kind of assay: Ca^2+ mobilization assay, HEK293T cells. It counts as cell-based. To be noted: Dog; BK at EC80 1.86 nM; n=1; read-out: IC50 (nM) Mean.

A further assay has as its target T6, mouse B2 receptor (Mus musculus, UniProt P32299).
T6 construct: host or cells: HEK293T cells
T6 sequence (P32299 1-392): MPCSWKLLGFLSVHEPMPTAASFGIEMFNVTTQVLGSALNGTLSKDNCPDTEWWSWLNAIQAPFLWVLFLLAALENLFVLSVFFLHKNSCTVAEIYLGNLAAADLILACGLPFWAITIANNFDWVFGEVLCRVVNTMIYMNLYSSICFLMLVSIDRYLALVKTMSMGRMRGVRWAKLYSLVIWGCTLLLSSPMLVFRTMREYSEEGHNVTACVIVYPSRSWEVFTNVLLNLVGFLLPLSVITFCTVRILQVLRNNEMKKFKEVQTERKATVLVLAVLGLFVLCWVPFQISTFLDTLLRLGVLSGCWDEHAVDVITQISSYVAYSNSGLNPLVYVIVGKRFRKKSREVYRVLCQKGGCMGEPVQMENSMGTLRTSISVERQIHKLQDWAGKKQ
Kind of assay: Ca^2+ mobilization assay, HEK293T cells. Format: cell-based. Particulars: BK at EC80 0.53 nM, n=1.

In a further assay the target is T7, kinin B1 receptor (Homo sapiens, UniProt P46663).
T7 construct: during the 3-hour incubation period to upregulate the expression of B1; from tissue; host or cells: human umbilical vein rings pre-incubated with interleukin-1β and tumor necrosis factor-α
Description: umbilical vein, Sar-[D-Phe^8]des-Arg^9-BK-induced contraction. Particulars: 1 μM.

“And” between values parts separate entries of the source, which are not always exact repeats. Identical values can stand only once.

T7 sequence (P46663 whole entry): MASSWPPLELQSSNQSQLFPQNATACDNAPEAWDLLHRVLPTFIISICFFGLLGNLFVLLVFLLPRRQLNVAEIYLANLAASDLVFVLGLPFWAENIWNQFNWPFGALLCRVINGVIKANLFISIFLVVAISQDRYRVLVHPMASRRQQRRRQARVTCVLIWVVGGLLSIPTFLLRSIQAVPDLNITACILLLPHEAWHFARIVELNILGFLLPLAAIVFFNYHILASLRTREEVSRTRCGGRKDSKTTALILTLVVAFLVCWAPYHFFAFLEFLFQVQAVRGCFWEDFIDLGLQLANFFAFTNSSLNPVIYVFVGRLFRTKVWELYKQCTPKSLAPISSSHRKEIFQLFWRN

As usually defined, the IC50 is the midpoint of a concentration-inhibition curve. For the compound `NC(N)=NCCC[C@@H](N)C(=O)N[C@@H](CCCN=C(N)N)C(=O)N1CCC[C@H]1C(=O)N1C[C@H](O)C[C@H]1C(=O)NCC(=O)N[C@@H](Cc1cccs1)C(=O)N[C@@H](CO)C(=O)N1Cc2ccccc2C[C@@H]1C(=O)N1[C@H](C(=O)N[C@@H](CCCN=C(N)N)C(=O)O)C[C@@H]2CCCC[C@@H]21` [icatibant, reference compound], the IC50 on Neurokinin NK2 was 420 nM; at rat B2 receptor, 37.4 nM; in assay [3], 17.1 nM; on dog B2 receptor, 87.1 nM; on mouse B2 receptor, 15.5 nM. Further, in assay [1] (BK concentration-effect curves, Emax), the “type of antagonism of BK” value was “competitive (surmountable) antagonist”. Also, in assay [1] (Schild regression, Pharm/PCS, ± S.E.M. where given), the Schild plot slope is -0.85 ± 0.16 and −0.85. Moreover, the “Maximal BK-induced response in absolute force units ± S.E.M.” value in assay [1] (antagonist 10 nM, Compound 2 2.25, Compound 3 1.52) is 1.47 ± 0.19 grams-weight; in assay [1] (antagonist 100 nM, Compound 2 2.25, Compound 3 1.52), 1.50 ± 0.27 grams-weight; in assay [1] (antagonist 1 μM, Compound 2 2.25, Compound 3 1.52), 1.40 ± 0.22 grams-weight; in assay [1] (antagonist 10 μM, Compound 2 2.25), 1.27 ± 0.17 grams-weight. The “pA2 value converted into nM” value in assay [1] (potency from pA2) is 8.71 nM and 8.7 nM. In assay [2], the “pA2, previously reported value” is given as 8.2. For the same compound, the Kb in assay [3] amounted to 4.06 nM. In addition, the “effect on contraction by B1 receptor agonist Sar-[D-Phe^8]des-Arg^9-BK” value on kinin B1 receptor is reported as “failed to antagonize”.
